From ChEMBL document CHEMBL4507285, “Data for DCP probe MRL-SYKi” (2021)

What was measured:
[1] = target: Epidermal growth factor receptor (Homo sapiens) (UniProt P00533); details: Compound concentration 100.0 nM
[2] = test system: Epidermal growth factor receptor (Homo sapiens), P00533 [L861Q]; details: Compound concentration 100.0 nM
[3] = target: Dual specificity mitogen-activated protein kinase kinase 4 (Homo sapiens) (UniProt P45985); details: Compound concentration 100.0 nM
[4] = test system: Receptor-type tyrosine-protein kinase FLT3 (Homo sapiens), P36888 [D835Y]; details: Compound concentration 100.0 nM
[5] = target: Tyrosine-protein kinase receptor Tie-1 (Homo sapiens) (UniProt P35590); details: Compound concentration 100.0 nM
[6] = target: Calcium/calmodulin-dependent protein kinase type II subunit alpha (Homo sapiens) (UniProt Q9UQM7); details: Compound concentration 100.0 nM
[7] = target: Mitogen-activated protein kinase 6 (Homo sapiens) (UniProt Q16659); details: Compound concentration 100.0 nM
[8] = target: Serine/threonine-protein kinase WNK1 (Homo sapiens) (UniProt Q9H4A3); details: Compound concentration 100.0 nM
Sequence of Serine/threonine-protein kinase WNK1 (Homo sapiens) (Q9H4A3 whole entry, looked up): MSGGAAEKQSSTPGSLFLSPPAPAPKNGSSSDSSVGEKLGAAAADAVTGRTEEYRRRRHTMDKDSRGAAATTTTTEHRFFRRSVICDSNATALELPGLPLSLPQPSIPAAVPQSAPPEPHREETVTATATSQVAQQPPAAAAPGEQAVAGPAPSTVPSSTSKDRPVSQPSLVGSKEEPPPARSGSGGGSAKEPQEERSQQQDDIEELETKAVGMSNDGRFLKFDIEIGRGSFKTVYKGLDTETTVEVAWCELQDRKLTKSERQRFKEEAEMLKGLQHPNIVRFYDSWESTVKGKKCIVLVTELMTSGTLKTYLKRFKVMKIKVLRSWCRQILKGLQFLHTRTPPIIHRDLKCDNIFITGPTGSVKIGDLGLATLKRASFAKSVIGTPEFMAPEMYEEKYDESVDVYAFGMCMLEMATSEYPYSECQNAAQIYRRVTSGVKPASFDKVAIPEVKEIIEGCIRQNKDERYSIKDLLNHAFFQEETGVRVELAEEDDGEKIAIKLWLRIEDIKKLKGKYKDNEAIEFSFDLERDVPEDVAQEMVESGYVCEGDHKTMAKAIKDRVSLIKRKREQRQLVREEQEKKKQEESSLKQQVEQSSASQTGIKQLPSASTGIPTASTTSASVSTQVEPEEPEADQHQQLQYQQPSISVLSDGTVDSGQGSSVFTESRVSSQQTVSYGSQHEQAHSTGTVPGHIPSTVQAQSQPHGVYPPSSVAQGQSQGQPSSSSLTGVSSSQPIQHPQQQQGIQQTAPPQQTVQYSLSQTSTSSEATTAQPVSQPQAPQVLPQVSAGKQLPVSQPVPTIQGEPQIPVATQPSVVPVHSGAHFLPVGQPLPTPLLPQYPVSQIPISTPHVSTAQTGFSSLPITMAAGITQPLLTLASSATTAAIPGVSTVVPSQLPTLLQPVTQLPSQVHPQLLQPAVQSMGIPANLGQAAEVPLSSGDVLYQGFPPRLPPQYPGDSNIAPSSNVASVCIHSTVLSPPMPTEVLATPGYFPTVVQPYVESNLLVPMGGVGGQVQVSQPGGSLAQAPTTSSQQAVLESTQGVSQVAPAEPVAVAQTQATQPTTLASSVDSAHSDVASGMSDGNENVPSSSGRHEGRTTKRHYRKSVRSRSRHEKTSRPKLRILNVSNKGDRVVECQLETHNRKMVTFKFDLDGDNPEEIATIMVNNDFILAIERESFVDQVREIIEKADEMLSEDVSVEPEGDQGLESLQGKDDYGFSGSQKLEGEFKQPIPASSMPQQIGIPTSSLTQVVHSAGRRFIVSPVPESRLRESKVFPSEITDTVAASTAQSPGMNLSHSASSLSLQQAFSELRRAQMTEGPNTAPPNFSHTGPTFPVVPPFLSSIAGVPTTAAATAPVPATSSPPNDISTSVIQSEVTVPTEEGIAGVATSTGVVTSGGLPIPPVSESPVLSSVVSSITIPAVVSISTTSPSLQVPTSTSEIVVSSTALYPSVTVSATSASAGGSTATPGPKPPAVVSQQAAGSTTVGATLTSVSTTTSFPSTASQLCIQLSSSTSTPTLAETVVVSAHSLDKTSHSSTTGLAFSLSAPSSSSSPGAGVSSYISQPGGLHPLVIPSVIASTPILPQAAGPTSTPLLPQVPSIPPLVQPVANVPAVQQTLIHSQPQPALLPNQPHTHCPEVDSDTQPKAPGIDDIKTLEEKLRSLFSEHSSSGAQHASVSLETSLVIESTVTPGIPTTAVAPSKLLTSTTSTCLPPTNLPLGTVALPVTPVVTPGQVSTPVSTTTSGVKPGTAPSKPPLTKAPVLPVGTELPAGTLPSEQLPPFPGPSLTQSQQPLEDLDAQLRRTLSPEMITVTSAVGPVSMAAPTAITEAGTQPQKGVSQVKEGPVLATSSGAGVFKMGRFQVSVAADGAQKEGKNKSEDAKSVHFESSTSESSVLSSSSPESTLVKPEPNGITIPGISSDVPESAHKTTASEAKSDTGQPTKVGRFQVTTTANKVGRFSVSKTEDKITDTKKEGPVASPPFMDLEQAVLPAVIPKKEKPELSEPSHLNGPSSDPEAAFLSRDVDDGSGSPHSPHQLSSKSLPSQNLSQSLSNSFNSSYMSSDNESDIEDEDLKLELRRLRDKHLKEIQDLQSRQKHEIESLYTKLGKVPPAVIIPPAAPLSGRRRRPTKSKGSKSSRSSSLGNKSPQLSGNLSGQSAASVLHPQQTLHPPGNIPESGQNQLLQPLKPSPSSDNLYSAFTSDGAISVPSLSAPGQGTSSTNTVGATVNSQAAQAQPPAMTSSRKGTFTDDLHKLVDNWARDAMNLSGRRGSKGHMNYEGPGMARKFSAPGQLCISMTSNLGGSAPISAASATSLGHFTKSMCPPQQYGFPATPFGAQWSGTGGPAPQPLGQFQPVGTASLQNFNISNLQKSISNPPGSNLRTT

[9] = target: Mitogen-activated protein kinase kinase kinase 20 (Homo sapiens) (UniProt Q9NYL2); details: Compound concentration 100.0 nM
[10] = target: Cyclin-dependent kinase 5 (Homo sapiens) (UniProt Q00535); details: Compound concentration 100.0 nM
[11] = target: Serine/threonine-protein kinase SIK1 (Homo sapiens) (UniProt P57059); details: Compound concentration 100.0 nM
[12] = target: Serine/threonine-protein kinase B-raf (Homo sapiens) (UniProt P15056); details: Compound concentration 100.0 nM
[13] = target: D(1B) dopamine receptor (Homo sapiens) (UniProt P21918); details: Compound concentration 10.0 uM
[14] = target: Serine/threonine-protein kinase 33 (Homo sapiens) (UniProt Q9BYT3); details: Compound concentration 100.0 nM
[15] = target: Serine/threonine-protein kinase 17B (Homo sapiens) (UniProt O94768); details: Compound concentration 100.0 nM
[16] = target: Testis-specific serine/threonine-protein kinase 3 (Homo sapiens) (UniProt Q96PN8); details: Compound concentration 100.0 nM
[17] = test system: Proto-oncogene tyrosine-protein kinase receptor Ret (Homo sapiens), P07949 [M918T]; details: Compound concentration 100.0 nM
Sequence of Proto-oncogene tyrosine-protein kinase receptor Ret (Homo sapiens), P07949 [M918T] (P07949 whole entry M918T): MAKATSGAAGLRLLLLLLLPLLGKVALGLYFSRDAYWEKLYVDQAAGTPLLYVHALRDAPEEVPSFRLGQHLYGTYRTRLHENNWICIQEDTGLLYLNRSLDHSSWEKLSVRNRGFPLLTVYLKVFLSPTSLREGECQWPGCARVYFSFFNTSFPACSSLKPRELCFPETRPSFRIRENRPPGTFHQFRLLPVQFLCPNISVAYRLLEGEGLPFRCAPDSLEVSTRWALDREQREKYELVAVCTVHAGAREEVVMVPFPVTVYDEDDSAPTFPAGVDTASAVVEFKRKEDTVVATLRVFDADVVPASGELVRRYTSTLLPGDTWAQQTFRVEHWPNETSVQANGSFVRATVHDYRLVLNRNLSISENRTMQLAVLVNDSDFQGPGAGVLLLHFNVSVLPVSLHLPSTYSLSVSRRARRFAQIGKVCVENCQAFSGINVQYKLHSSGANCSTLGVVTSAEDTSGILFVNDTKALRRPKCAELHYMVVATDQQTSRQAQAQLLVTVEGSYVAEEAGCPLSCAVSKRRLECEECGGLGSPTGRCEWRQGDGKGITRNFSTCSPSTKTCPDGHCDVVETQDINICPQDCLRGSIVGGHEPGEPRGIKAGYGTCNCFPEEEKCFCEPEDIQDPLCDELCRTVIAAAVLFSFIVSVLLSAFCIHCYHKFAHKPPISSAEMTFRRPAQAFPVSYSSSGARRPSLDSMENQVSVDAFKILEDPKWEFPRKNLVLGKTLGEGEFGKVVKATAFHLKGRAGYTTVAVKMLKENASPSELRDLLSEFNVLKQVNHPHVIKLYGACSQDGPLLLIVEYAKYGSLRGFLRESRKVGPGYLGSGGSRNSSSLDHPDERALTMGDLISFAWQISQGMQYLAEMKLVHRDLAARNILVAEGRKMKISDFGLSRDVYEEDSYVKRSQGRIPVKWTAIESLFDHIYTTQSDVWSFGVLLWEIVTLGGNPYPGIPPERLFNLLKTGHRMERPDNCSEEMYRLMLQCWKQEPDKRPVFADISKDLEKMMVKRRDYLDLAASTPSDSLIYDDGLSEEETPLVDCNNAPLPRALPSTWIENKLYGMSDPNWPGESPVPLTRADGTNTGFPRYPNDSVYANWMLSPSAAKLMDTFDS

[18] = target: Mitogen-activated protein kinase kinase kinase 7 (Homo sapiens) (UniProt O43318); details: Compound concentration 100.0 nM
[19] = target: Cyclin-dependent kinase-like 5 (Homo sapiens) (UniProt O76039); details: Compound concentration 100.0 nM
[20] = target: 5-hydroxytryptamine receptor 1D (Homo sapiens) (UniProt P28221); details: Compound concentration 10.0 uM
[21] = target: Serine/threonine-protein kinase 32C (Homo sapiens) (UniProt Q86UX6); details: Compound concentration 100.0 nM
[22] = test system: Epidermal growth factor receptor (Homo sapiens), P00533 [G719C]; details: Compound concentration 100.0 nM
[23] = target: Alpha-1B adrenergic receptor (Homo sapiens) (UniProt P35368); details: Compound concentration 10.0 uM
[24] = test system: Tyrosine-protein kinase ABL1 (Homo sapiens), P00519 [F317L]; details: Compound concentration 100.0 nM
[25] = target: Ribosomal protein S6 kinase alpha-3 (Homo sapiens) (UniProt P51812); details: Compound concentration 100.0 nM
[26] = target: Serine/threonine-protein kinase Sgk2 (Homo sapiens) (UniProt Q9HBY8); details: Compound concentration 100.0 nM
[27] = target: Calcium/calmodulin-dependent protein kinase type 1B (Homo sapiens) (UniProt Q6P2M8); details: Compound concentration 100.0 nM
Sequence of Calcium/calmodulin-dependent protein kinase type 1B (Homo sapiens) (Q6P2M8 whole entry): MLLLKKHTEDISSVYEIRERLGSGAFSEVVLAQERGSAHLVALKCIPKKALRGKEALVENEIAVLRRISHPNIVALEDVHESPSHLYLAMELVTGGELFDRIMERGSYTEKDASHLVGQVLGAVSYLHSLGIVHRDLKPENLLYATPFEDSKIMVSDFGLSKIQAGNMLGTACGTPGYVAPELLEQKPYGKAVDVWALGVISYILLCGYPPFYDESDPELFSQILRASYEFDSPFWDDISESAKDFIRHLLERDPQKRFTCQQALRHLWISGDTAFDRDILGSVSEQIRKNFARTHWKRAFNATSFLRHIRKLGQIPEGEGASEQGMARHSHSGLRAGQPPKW

[28] = target: Serine/threonine-protein kinase DCLK3 (Homo sapiens) (UniProt Q9C098); details: Compound concentration 100.0 nM
[29] = target: MAP/microtubule affinity-regulating kinase 4 (Homo sapiens) (UniProt Q96L34); details: Compound concentration 100.0 nM
[30] = target: Protein-tyrosine kinase 6 (Homo sapiens) (UniProt Q13882); details: Compound concentration 100.0 nM
[31] = test system: Receptor-type tyrosine-protein kinase FLT3 (Homo sapiens), P36888 [N841I]; details: Compound concentration 100.0 nM
[32] = target: Serine/threonine-protein kinase D3 (Homo sapiens) (UniProt O94806); details: Compound concentration 100.0 nM
[33] = target: Homeodomain-interacting protein kinase 2 (Homo sapiens) (UniProt Q9H2X6); details: Compound concentration 100.0 nM
[34] = target: Serine/threonine-protein kinase haspin (Homo sapiens) (UniProt Q8TF76); details: Compound concentration 100.0 nM
[35] = target: Non-receptor tyrosine-protein kinase TYK2 (Homo sapiens) (UniProt P29597); details: Compound concentration 100.0 nM
Sequence of Non-receptor tyrosine-protein kinase TYK2 (Homo sapiens) (P29597 whole entry): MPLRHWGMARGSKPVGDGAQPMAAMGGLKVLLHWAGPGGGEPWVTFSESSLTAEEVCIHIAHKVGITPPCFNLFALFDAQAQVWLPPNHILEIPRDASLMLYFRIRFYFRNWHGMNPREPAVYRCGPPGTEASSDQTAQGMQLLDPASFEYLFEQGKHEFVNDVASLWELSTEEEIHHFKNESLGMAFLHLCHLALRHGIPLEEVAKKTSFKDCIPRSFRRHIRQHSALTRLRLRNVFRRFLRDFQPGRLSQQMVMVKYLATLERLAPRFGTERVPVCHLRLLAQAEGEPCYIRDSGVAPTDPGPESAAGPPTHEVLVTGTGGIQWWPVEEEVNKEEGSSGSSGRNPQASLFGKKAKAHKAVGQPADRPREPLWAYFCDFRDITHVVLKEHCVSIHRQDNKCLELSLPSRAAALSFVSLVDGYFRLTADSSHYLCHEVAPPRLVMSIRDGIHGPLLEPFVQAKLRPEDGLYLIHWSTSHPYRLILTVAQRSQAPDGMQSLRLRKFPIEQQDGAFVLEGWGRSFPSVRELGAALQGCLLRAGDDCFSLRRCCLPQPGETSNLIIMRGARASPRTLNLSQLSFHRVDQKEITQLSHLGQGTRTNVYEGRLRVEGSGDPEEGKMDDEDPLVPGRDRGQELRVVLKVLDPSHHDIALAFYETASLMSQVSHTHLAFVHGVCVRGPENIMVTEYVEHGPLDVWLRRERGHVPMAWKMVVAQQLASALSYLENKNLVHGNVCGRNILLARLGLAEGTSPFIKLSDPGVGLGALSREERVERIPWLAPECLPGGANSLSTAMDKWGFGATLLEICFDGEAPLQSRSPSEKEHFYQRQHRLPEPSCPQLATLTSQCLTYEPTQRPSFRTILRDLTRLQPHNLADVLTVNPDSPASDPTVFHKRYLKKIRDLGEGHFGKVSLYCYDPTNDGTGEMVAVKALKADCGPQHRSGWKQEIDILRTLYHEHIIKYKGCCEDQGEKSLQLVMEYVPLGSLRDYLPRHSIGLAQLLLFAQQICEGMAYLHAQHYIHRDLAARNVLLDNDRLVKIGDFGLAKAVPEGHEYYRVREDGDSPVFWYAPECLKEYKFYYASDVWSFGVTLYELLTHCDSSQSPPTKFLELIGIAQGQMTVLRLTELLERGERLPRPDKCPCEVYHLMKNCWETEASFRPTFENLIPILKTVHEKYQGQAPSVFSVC

[36] = target: Serine/threonine-protein kinase Chk1 (Homo sapiens) (UniProt O14757); details: Compound concentration 100.0 nM
[37] = target: Receptor tyrosine-protein kinase erbB-2 (Homo sapiens) (UniProt P04626); details: Compound concentration 100.0 nM
[38] = target: Misshapen-like kinase 1 (Homo sapiens) (UniProt Q8N4C8); details: Compound concentration 100.0 nM
[39] = target: Cyclin-dependent kinase 2 (Homo sapiens) (UniProt P24941); details: Compound concentration 100.0 nM
[40] = target: Tyrosine-protein kinase Mer (Homo sapiens) (UniProt Q12866); details: Compound concentration 100.0 nM
[41] = target: Serine/threonine-protein kinase PLK3 (Homo sapiens) (UniProt Q9H4B4); details: Compound concentration 100.0 nM
[42] = target: SRSF protein kinase 1 (Homo sapiens) (UniProt Q96SB4); details: Compound concentration 100.0 nM
[43] = test system: Tyrosine-protein kinase ABL1 (Homo sapiens), P00519 [Q252H]; details: Compound concentration 100.0 nM
[44] = target: Epithelial discoidin domain-containing receptor 1 (Homo sapiens) (UniProt Q08345); details: Compound concentration 100.0 nM
[45] = target: MAP kinase-activated protein kinase 5 (Homo sapiens) (UniProt Q8IW41); details: Compound concentration 100.0 nM

Cc1ccc(-c2cnc([C@@]3(O)CC[C@H](C(=O)O)C(C)(C)C3)s2)cc1Nc1cccc(C(F)(F)F)n1 [MRL-SYKi-NC]
inactive: residual activity [1] 69.4% | residual activity [2] 98.5% | residual activity [3] 81.2% | residual activity [4] 94.1% | residual activity [5] 86.8% | residual activity [6] 90.8% | residual activity [7] 100% | residual activity [8] 100% | residual activity [9] 96.9% | residual activity [10] 100% | residual activity [11] 100% | residual activity [12] 100% | inhibition [13] 18.6% | residual activity [14] 100% | residual activity [15] 94.6% | residual activity [16] 100% | residual activity [17] 100% | residual activity [18] 92.6% | residual activity [19] 100% | inhibition [20] 16.5% | residual activity [21] 100% | residual activity [22] 100% | inhibition [23] 7.9% | residual activity [24] 99.1% | residual activity [25] 73.8% | residual activity [26] 57.3% | residual activity [27] 95.9% | residual activity [28] 76.2% | residual activity [29] 71.5% | residual activity [30] 100% | residual activity [31] 89.3% | residual activity [32] 100% | residual activity [33] 73.5% | residual activity [35] 100% | residual activity [36] 100% | residual activity [37] 100% | residual activity [38] 100% | residual activity [39] 98.8% | residual activity [40] 100% | residual activity [41] 100% | residual activity [42] 89.7% | residual activity [43] 82.2% | residual activity [44] 100% | residual activity [45] 97.7%
active: residual activity [34] 47%

Cc1cc(Nc2nccc(C)n2)cc(-c2cnc([C@@]3(O)CC[C@H](C(=O)O)C(C)(C)C3)s2)c1 [MRL-SYKi]
active: residual activity [43] 32.4%
inactive: residual activity [1] 100% | residual activity [2] 100% | residual activity [3] 100% | residual activity [4] 83.4% | residual activity [5] 68.1% | residual activity [6] 100% | residual activity [7] 97.9% | residual activity [8] 100% | residual activity [9] 92.5% | residual activity [10] 87.6% | residual activity [11] 94.3% | residual activity [12] 100% | inhibition [13] 8.85% | residual activity [14] 64.4% | residual activity [15] 100% | residual activity [16] 100% | residual activity [17] 95.5% | residual activity [18] 100% | residual activity [19] 96.1% | inhibition [20] 2.65% | residual activity [21] 85.9% | residual activity [22] 100% | inhibition [23] 3.23% | residual activity [24] 100% | residual activity [25] 83.4% | residual activity [26] 100% | residual activity [27] 78.1% | residual activity [28] 97.3% | residual activity [29] 100% | residual activity [30] 100% | residual activity [31] 100% | residual activity [32] 100% | residual activity [33] 83.5% | residual activity [34] 90.8% | residual activity [35] 68.6% | residual activity [36] 100% | residual activity [37] 89.6% | residual activity [38] 80.7% | residual activity [39] 94.7% | residual activity [40] 81.5% | residual activity [41] 74.6% | residual activity [42] 97.7% | residual activity [44] 84.5% | residual activity [45] 100%
